# “Also recorded” adds a separate entry of the source.
# Experiments:
# [1] = tested on: U251-MG cells; assay: Cell viability assay, trypan blue dye exclusion, oligonucleotide in water every 12 hr; format: cell-based, human; details: 5 micromolar every 12 hr
# Experimental: The cytotoxic effect of 2-5A activator antisense complexes on tumor cells was determined using the trypan blue dye exclusion assay. Tumor cells were seeded at 10^4 cells/well (0.1 ml) in 96-well flat-bottomed plates and incubated overnight at 37° C. Then, oligonucleotides (5 micromolar) in water were added into cells every 12 hr. On successive days the cells were harvested and 25% of the total was examined microscopically to determine the percentage of viable cells, another 25% was replated to continue treatment and the remaining 50% were used for the TRAP assay.
# Knowing that hTR could be inactivated by the 2-5A antisense treatment, U251-MG cells were treated every 12 hours over a 14 day period with the same three oligonucleotides. 79% of the cells treated with spA4-anti-hTR were killed over the 14 day period with a significant (50%) reduction in cell viability after only 5 days. […] These experiments have since been repeated on a number of occasions with U251-MG cells to test new batches of oligonucleotides, always with the same results. […] Thus, after 14 days from the initial treatment with spA4-anti-hTR, the viability of U251-MG cells, as shown by Trypan-blue exclusion assays, was suppressed in all cases.
# [2] = tested on: U373 human malignant glioma cells; assay: TUNEL assay for apoptosis, oligonucleotide plus lipofectamine; format: cell-based
# Experimental: To further determine whether treatment with oligonucleotides induced apoptosis, tumor cells and tissues were stained by the terminal deoxynucleotidyl transferase (TdT)-mediated DUTP nick end labeling (TUNEL) technique using Apo-Tag kit (peroxidase conjugated) (Oncor Inc., Gaithersburg, Md.). The staining of apoptotic cells was done on U373MG cells. Oligonucleotides with lipofectamine was added to the cells every day. The final concentrations were 0.5 micromolar and 8 microgram/ml for oligo and lipofectamine, respectively. Pictures were taken after 3 days of treatment.
# [3] = tested on: prostate tumor cell line PC3; assay: Viable cell count, daily oligonucleotide plus lipofectamine; format: cell-based, human; details: PC3, 0.5 micromolar daily plus lipofectamine
# Experimental: (§1) Cells (10,000/well) were seeded on 96 well tissue culture dishes, and treated every 24 hours. A 10× concentrated mixture of oligonucleotides plus lipofectamine in water was prepared containing 5 micromolar oligonucleotide and 80 microgram per ml lipofectamine™ (Gibco/BRL) and incubated for 10 min at room temperature. Media was removed from the cells, 10 microliters of the oligonucleotide/lipofectamine mixture was added directly to the cultured cells followed by 90 microliters of media plus serum. The media was changed with oligonucleotide/lipofectamine treatments every 24 h. Cells were passaged when the control cells reached confluency, and viable cells were counted after staining with Trypan Blue (GibcoBRL). The numbers of cells treated only with lipofectamine were used as the control to calculate percentages of cell survival or viability.
# (§2) Similarly, the viability of the breast cancer cell line, MDA468, was reduced by 64% by SpA4-anti-hTR, while the control oligonucleotides reduced cell viability by <20% (FIG. 6). Viability of the human melanoma cell line, A375, was reduced by 43% in three days by SpA4-anti-hTR, while the control oligonucleotides had no effect (FIG. 7). […] Viability of a third human melanoma cell line, SK-MEL-5, was reduced by 43% by SpA4-anti-hTR, with minimal effects by the control oligonucleotides (FIG. 7). Two prostate tumor cells lines, PC3 and DU145, were suppressed by SpA4-anti-hTR treatments by 45% and 60%, respectively (FIGS. 6 and 10). […] The viability of the malignant glioma cell line, U373, was reduced by about 60% in 3 days, with intermediate effects by the control oligonucleotides (FIG. 6). Therefore, the proliferation and survival of every tumor cell type tested was inhibited by SpA4-anti-hTR. […] In contrast, there was no apoptosis detected in the control cells treated with lipofectamine without oligonucleotide (FIG. 12 upper panel).
# [4] = tested on: renal cell carcinoma cell line, RCC; assay: as above; format: cell-based, human; details: 0.5 micromolar daily plus lipofectamine
# Experimental: as §1, §2
# [5] = tested on: breast cancer cell line, MDA468; assay: as above; format: cell-based, human; details: MDA468, 0.5 micromolar daily plus lipofectamine
# Experimental: as §1, §2
# [6] = tested on: RCC tumors; assay: Subcutaneous tumors in nude mice, intratumoral oligonucleotide plus lipofectamine; format: in vivo
# Experimental: (§3) RCC and A375 tumor cells (500,000 cells per tumor) were injected subcutaneously. The treatments, begun 8 days after tumor cell inoculation, was with 40 microliter of 25 micromolar SpA4-anti-hTR plus 1 microliter (2 microgram) lipofectamine injected in each tumor every day.
# [7] = tested on: A375 tumors; assay: as above; format: in vivo
# Experimental: as §3
substance,measurement,setting,value
"Sp5′A2′p(5′A2p)3-[(Bu)p]2-5′GCG CGG GGA GCA AAA GCA C3′-3′T5′ (antisense GCGCGGGGAGCAAAAGCAC; 5'-thiophosphate 2-5A tetramer, butanediol linkers, 3'-3'T cap, chemistry not fully specified) [spA4-anti-hTR, 2-5A tetramer linked by butanediol linkers to 19-mer antisense against human telomerase RNA nucleotides 76 to 94]",cell death / effect on viability (in words),[1]; 14 days,vast majority of cells can be killed
same,reduction in cell viability,[1]; after 5 days,50%
same,cells killed,[1]; over the 14 day period,79%
same,apoptosis by TUNEL (in words),[2]; 0.5 micromolar daily plus lipofectamine for 3 days,apoptosis was clearly visible
same,apoptosis by TUNEL assay for DNA breakage (in words),[2]; over time of treatment,time-dependent increase in apoptotic cells; also recorded: caused apoptosis
same,effect on growth/viability (in words),[3],specifically suppressed growth
same,suppression of cells,[3],45%
same,effect on growth/viability (in words),[4]; 3 days,specifically suppressed growth
same,reduction in viability,[4]; three days,61%
same,effect on growth (in words),[5],specifically suppressed growth
same,reduction in viability,[5],64%
same,tumor cell growth (in words),"[6]; RCC subcutaneous, oligonucleotide plus lipofectamine from day 8",Suppression
same,increase in tumor size,"[6]; RCC, 40 microliter of 25 micromolar plus lipofectamine intratumoral daily, seven day period",14%
same,increase in tumor size,"[7]; A375, 40 microliter of 25 micromolar plus lipofectamine intratumoral daily, seven days",17%
same,tumor cell growth (in words),"[7]; A375 subcutaneous, oligonucleotide plus lipofectamine from day 8",Suppression

# Source: US6468983B2, “RNase L activators and antisense oligonucleotides effective to treat telomerase-expressing malignancies” (The Cleveland Clinic Foundation, priority 1997, dated 2002)
